Key:
[1] = test system: α-isomaltosylglucosaccharide-forming enzyme; test: Specificity of transfer acceptor (C9 enzyme); assay type: biochemical, Bacillus globisporus C9 strain; design: key: −: no saccharide-transferred product was detected through transferring reaction to acceptor; ±: a saccharide-transferred product was detected in an amount of less than one percent through transfer reaction to acceptor; +: a saccharide-transferred product was detected in an amount of at least one percent but less than ten percent through transferring reaction to acceptor; ++: a saccharide-transferred product was detected in an amount of at least ten percent through transferring reaction to acceptor; conditions: acceptor 1.6%, PINE-DEX #100 donor 4%, one unit/g donor, 30° C., pH 6.0, 24 hours
Description: (§1) A variety of saccharides were tested whether they could be used as transferring-acceptors for the α-isomaltosylglucosaccharide-forming enzyme. A solution of D-glucose, D-xylose, L-xylose, D-galactose, D-fructose, D-mannose, D-arabinose, D-fucose, L-sorbose, L-rhamnose, methyl-α-glucopyranoside, methyl-β-glucopyranoside, N-acetyl-glucosamine, sorbitol, α,α-trehalose, isomaltose, isomaltotriose, cellobiose, gentibiose, maltitol, lactose, sucrose, α-cyclodextrin, β-cyclodextrin, or γ-cyclodextrin was prepared. […] The reaction mixtures after the enzymatic reactions were analyzed on gas chromatography (abbreviated as “GLC” hereinafter) for monosaccharides and disaccharides as acceptors, and on HPLC for trisaccharides and higher saccharides as acceptors to confirm whether these saccharides could be used as their transfer acceptors. In the case of performing GLC, the following apparatuses and conditions were used: […] In the case of HPLC analysis, the apparatuses and conditions used were: HPLC apparatus, “CCPD” commercialized by Tosoh Corporation, Tokyo, Japan; column, “ODS-AQ-303” commercialized by YMC Co., Ltd., Tokyo, Japan; eluent, water at a flow rate of 0.5 ml/min; and detection, a differential refractometer.

[2] = test system: α-isomaltosylglucosaccharide-forming enzyme; test: Specificity of transfer acceptor (C11 enzyme); assay type: biochemical, Bacillus globisporus C11 strain; design: key: −: no saccharide-transferred product was detected through transferring reaction to acceptor; ±: a saccharide-transferred product was detected in an amount of less than one percent through transfer reaction to acceptor; +: a saccharide-transferred product was detected in an amount of at least one percent but less than ten percent through transferring reaction to acceptor; ++: a saccharide-transferred product was detected in an amount of at least ten percent through transferring reaction to acceptor; conditions: acceptor 1.6%, PINE-DEX #100 donor 4%, one unit/g donor, 30° C., pH 6.0, 24 hours
Description: as §1

Compound | Product of saccharide transferring reaction, Enzyme of C9 strain [1] | Product of saccharide transferring reaction, Enzyme of C11 strain [2]
O=C[C@@H](O)[C@H](O)[C@@H](O)CO [L-Xylose, L-xylose] | ++ (a saccharide-transferred product was detected in an amount of at least ten percent through transferring reaction to acceptor) | ++ (a saccharide-transferred product was detected in an amount of at least ten percent through transferring reaction to acceptor)
CC(=O)N[C@H]1C(O)O[C@H](CO)[C@@H](O)[C@@H]1O (stereo partly shown) [N-Acetyl-glucosamine, N-acetyl-glucosamine] | + (a saccharide-transferred product was detected in an amount of at least one percent but less than ten percent through transferring reaction to acceptor) | + (a saccharide-transferred product was detected in an amount of at least one percent but less than ten percent through transferring reaction to acceptor)
O=C(CO)[C@@H](O)[C@H](O)[C@@H](O)CO [L-Sorbose, L-sorbose] | + (a saccharide-transferred product was detected in an amount of at least one percent but less than ten percent through transferring reaction to acceptor) | + (a saccharide-transferred product was detected in an amount of at least one percent but less than ten percent through transferring reaction to acceptor)
OC[C@H]1O[C@@](CO)(O[C@H]2O[C@H](CO)[C@@H](O)[C@H](O)[C@H]2O)[C@@H](O)[C@@H]1O [Sucrose, sucrose] | ++ (a saccharide-transferred product was detected in an amount of at least ten percent through transferring reaction to acceptor) | ++ (a saccharide-transferred product was detected in an amount of at least ten percent through transferring reaction to acceptor)
OC[C@H]1O[C@@H]2O[C@H]3[C@H](O)[C@@H](O)[C@@H](O[C@H]4[C@H](O)[C@@H](O)[C@@H](O[C@H]5[C@H](O)[C@@H](O)[C@@H](O[C@H]6[C@H](O)[C@@H](O)[C@@H](O[C@H]7[C@H](O)[C@@H](O)[C@@H](O[C@H]1[C@H](O)[C@H]2O)O[C@@H]7CO)O[C@@H]6CO)O[C@@H]5CO)O[C@@H]4CO)O[C@@H]3CO [α-Cyclodextrin, α-cyclodextrin] | − | −
CO[C@@H]1O[C@H](CO)[C@@H](O)[C@H](O)[C@H]1O [Methyl-β-glucopyranoside, methyl-β-glucopyranoside] | ++ (a saccharide-transferred product was detected in an amount of at least ten percent through transferring reaction to acceptor) | ++ (a saccharide-transferred product was detected in an amount of at least ten percent through transferring reaction to acceptor)
O=C[C@@H](O)[C@@H](O)[C@H](O)[C@H](O)CO [D-Mannose, D-mannose] | − | −
OC[C@H]1O[C@H](OC[C@H]2OC(O)[C@H](O)[C@@H](O)[C@@H]2O)[C@H](O)[C@@H](O)[C@@H]1O (stereo partly shown) [Isomaltose, isomaltose] | ++ (a saccharide-transferred product was detected in an amount of at least ten percent through transferring reaction to acceptor) | ++ (a saccharide-transferred product was detected in an amount of at least ten percent through transferring reaction to acceptor)
CO[C@H]1O[C@H](CO)[C@@H](O)[C@H](O)[C@H]1O [Methyl-α-glucopyranoside, methyl-α-glucopyranoside] | ++ (a saccharide-transferred product was detected in an amount of at least ten percent through transferring reaction to acceptor) | ++ (a saccharide-transferred product was detected in an amount of at least ten percent through transferring reaction to acceptor)
C[C@H](O)[C@H](O)[C@@H](O)[C@@H](O)C=O [L-Rhamnose, L-rhamnose] | − | −
OC[C@H]1O[C@@H]2O[C@H]3[C@H](O)[C@@H](O)[C@@H](O[C@H]4[C@H](O)[C@@H](O)[C@@H](O[C@H]5[C@H](O)[C@@H](O)[C@@H](O[C@H]6[C@H](O)[C@@H](O)[C@@H](O[C@H]7[C@H](O)[C@@H](O)[C@@H](O[C@H]8[C@H](O)[C@@H](O)[C@@H](O[C@H]9[C@H](O)[C@@H](O)[C@@H](O[C@H]1[C@H](O)[C@H]2O)O[C@@H]9CO)O[C@@H]8CO)O[C@@H]7CO)O[C@@H]6CO)O[C@@H]5CO)O[C@@H]4CO)O[C@@H]3CO [γ-Cyclodextrin, γ-cyclodextrin] | − | −
C[C@@H](O)[C@H](O)[C@H](O)[C@@H](O)C=O [D-Fucose, D-fucose] | + (a saccharide-transferred product was detected in an amount of at least one percent but less than ten percent through transferring reaction to acceptor) | + (a saccharide-transferred product was detected in an amount of at least one percent but less than ten percent through transferring reaction to acceptor)
O=C[C@@H](O)[C@H](O)[C@H](O)CO [D-Arabinose, D-arabinose] | ± (a saccharide-transferred product was detected in an amount of less than one percent through transfer reaction to acceptor) | ± (a saccharide-transferred product was detected in an amount of less than one percent through transfer reaction to acceptor)
OC[C@H]1O[C@@H](O[C@H]2[C@H](O)[C@@H](O)C(O)O[C@@H]2CO)[C@H](O)[C@@H](O)[C@H]1O (stereo partly shown) [Lactose, lactose] | ++ (a saccharide-transferred product was detected in an amount of at least ten percent through transferring reaction to acceptor) | ++ (a saccharide-transferred product was detected in an amount of at least ten percent through transferring reaction to acceptor)
OC[C@@H](O)[C@@H](O)[C@H](O)[C@@H](O)CO [Sorbitol, sorbitol] | − | −
O=C[C@H](O)[C@@H](O)[C@@H](O)[C@H](O)CO [D-Galactose, D-galactose] | + (a saccharide-transferred product was detected in an amount of at least one percent but less than ten percent through transferring reaction to acceptor) | + (a saccharide-transferred product was detected in an amount of at least one percent but less than ten percent through transferring reaction to acceptor)
OC[C@H]1O[C@H](OC[C@H]2O[C@H](OC[C@H]3OC(O)[C@H](O)[C@@H](O)[C@@H]3O)[C@H](O)[C@@H](O)[C@@H]2O)[C@H](O)[C@@H](O)[C@@H]1O (stereo partly shown) [Isomaltotriose, isomaltotriose] | ++ (a saccharide-transferred product was detected in an amount of at least ten percent through transferring reaction to acceptor) | ++ (a saccharide-transferred product was detected in an amount of at least ten percent through transferring reaction to acceptor)
O=C[C@H](O)[C@@H](O)[C@H](O[C@@H]1O[C@H](CO)[C@@H](O)[C@H](O)[C@H]1O)[C@H](O)CO [Cellobiose, cellobiose] | ++ (a saccharide-transferred product was detected in an amount of at least ten percent through transferring reaction to acceptor) | ++ (a saccharide-transferred product was detected in an amount of at least ten percent through transferring reaction to acceptor)
O=C(CO)[C@@H](O)[C@H](O)[C@H](O)CO [D-Fructose, D-fructose] | + (a saccharide-transferred product was detected in an amount of at least one percent but less than ten percent through transferring reaction to acceptor) | + (a saccharide-transferred product was detected in an amount of at least one percent but less than ten percent through transferring reaction to acceptor)
OC[C@H]1O[C@@H]2O[C@H]3[C@H](O)[C@@H](O)[C@@H](O[C@H]4[C@H](O)[C@@H](O)[C@@H](O[C@H]5[C@H](O)[C@@H](O)[C@@H](O[C@H]6[C@H](O)[C@@H](O)[C@@H](O[C@H]7[C@H](O)[C@@H](O)[C@@H](O[C@H]8[C@H](O)[C@@H](O)[C@@H](O[C@H]1[C@H](O)[C@H]2O)O[C@@H]8CO)O[C@@H]7CO)O[C@@H]6CO)O[C@@H]5CO)O[C@@H]4CO)O[C@@H]3CO [β-Cyclodextrin, β-cyclodextrin] | − | −
